Assay results as given in PubChem BioAssay AID1919004 (Molecular Pharmacology Branch, DTP, NCI, 2023).

System: 883617-216-R-J1-PDC complex spheroids, growth, % test/control
Experiment: Anticancer human tumor 883617-216-R-J1-PDC patient-derived bladder carcinoma cell line growth inhibition [AhR]
Details: for IC50: curve of first compound; for viability, T/C: stronger effect = lower value
Outline: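 Spheroids combined tumor cells with HUVEC endothelial cells and human MSCs as stroma. AhR antagonists were paired with standard or investigational drugs, each dosed in half-log steps down from near clinical Cmax, or from 10 microM where Cmax was unknown.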

[1] = second compound 0.1 µM, first compound 0.0316 µM
[2] = second compound 0.1 µM, first compound 0.1 µM
[3] = second compound 0.1 µM, first compound 0.316 µM
[4] = second compound 0.1 µM, first compound 1 µM
[5] = second compound 0.1 µM, first compound 3.16 µM
[6] = second compound 0.1 µM, first compound 10 µM
[7] = second compound 0.316 µM, first compound 0.0316 µM
[8] = second compound 0.316 µM, first compound 0.1 µM
[9] = second compound 0.316 µM, first compound 0.316 µM
[10] = second compound 0.316 µM, first compound 1 µM
[11] = second compound 0.316 µM, first compound 3.16 µM
[12] = second compound 0.316 µM, first compound 10 µM
[13] = second compound 1 µM, first compound 0.0316 µM
[14] = second compound 1 µM, first compound 0.1 µM
[15] = second compound 1 µM, first compound 0.316 µM
[16] = second compound 1 µM, first compound 1 µM
[17] = second compound 1 µM, first compound 3.16 µM
[18] = second compound 1 µM, first compound 10 µM
[19] = second compound 3.16 µM, first compound 0.0316 µM
[20] = second compound 3.16 µM, first compound 0.1 µM
[21] = second compound 3.16 µM, first compound 0.316 µM
[22] = second compound 3.16 µM, first compound 1 µM
[23] = second compound 3.16 µM, first compound 3.16 µM
[24] = second compound 3.16 µM, first compound 10 µM
[25] = second compound 10 µM, first compound 0.0316 µM
[26] = second compound 10 µM, first compound 0.1 µM
[27] = second compound 10 µM, first compound 0.316 µM
[28] = second compound 10 µM, first compound 1 µM
[29] = second compound 10 µM, first compound 3.16 µM
[30] = second compound 10 µM, first compound 10 µM
[31] = second compound 0.1 µM, first compound 0.00316 µM
[32] = second compound 0.1 µM, first compound 0.01 µM
[33] = second compound 0.316 µM, first compound 0.00316 µM
[34] = second compound 0.316 µM, first compound 0.01 µM
[35] = second compound 1 µM, first compound 0.00316 µM
[36] = second compound 1 µM, first compound 0.01 µM
[37] = second compound 3.16 µM, first compound 0.00316 µM
[38] = second compound 3.16 µM, first compound 0.01 µM
[39] = second compound 10 µM, first compound 0.00316 µM
[40] = second compound 10 µM, first compound 0.01 µM
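Also: exposure lasted 7 days after dosing on day 3 of spheroid growth.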

| Structure (SMILES) | IC50 (second compound 0.1 µM) [nM] | IC50 (second compound 0.316 µM) [nM] | IC50 (second compound 1 µM) [nM] | IC50 (second compound 3.16 µM) [nM] | IC50 (second compound 10 µM) [nM] | viability, T/C [1] [%] | viability, T/C [2] [%] | viability, T/C [3] [%] | viability, T/C [4] [%] | viability, T/C [7] [%] | viability, T/C [8] [%] | viability, T/C [9] [%] | viability, T/C [10] [%] | viability, T/C [13] [%] | viability, T/C [14] [%] | viability, T/C [15] [%] | viability, T/C [16] [%] | viability, T/C [19] [%] | viability, T/C [20] [%] | viability, T/C [21] [%] | other results |
| --- | --- | --- | --- | --- | --- | --- | --- | --- | --- | --- | --- | --- | --- | --- | --- | --- | --- | --- | --- | --- | --- |
| CC(C)c1c(-c2ccccc2)nc2c(C#N)c[nH]n2c1=O + Cc1ccccc1N=Nc1ccc(NC(=O)c2ccnn2C)c(C)c1 | > 10000 | > 10000 | > 10000 | > 10000 | > 10000 | 91.7 | 101 | 85.9 | 103 | 99.1 | 94.6 | 86.6 | 93.9 | 84 | 85 | 87.7 | 84.8 | 87.7 | 89.6 | 72.8 | viability, T/C [5]: 101%; viability, T/C [6]: 93.7%; viability, T/C [11]: 86%; viability, T/C [12]: 91.1%; viability, T/C [17]: 91%; viability, T/C [18]: 91.6%; viability, T/C [22]: 84.5%; viability, T/C [23]: 82.9%; viability, T/C [24]: 77.7%; viability, T/C [25]: 75.4%; viability, T/C [26]: 78.3%; viability, T/C [27]: 82.1%; viability, T/C [28]: 79.3%; viability, T/C [29]: 75.9%; viability, T/C [30]: 82.9% |
| CC1COCCN1c1cc(-c2ccnn2C)c2ccnc(-c3ccn[nH]3)c2n1 (stereo not given) + Cc1ccccc1N=Nc1ccc(NC(=O)c2ccnn2C)c(C)c1 | 906 | > 1000 | 813 | 491 | 624 | 76.7 | 74.6 | 58.6 | 49.1 | 85.9 | 69.6 | 55.7 | 51.4 | 70.3 | 67.7 | 56 | 48.4 | 71.2 | 71.2 | 49.8 | viability, T/C [31]: 98%; viability, T/C [32]: 96.6%; viability, T/C [33]: 97.7%; viability, T/C [34]: 83.3%; viability, T/C [35]: 84.4%; viability, T/C [36]: 88.8%; viability, T/C [37]: 86.5%; viability, T/C [38]: 81.2%; viability, T/C [22]: 44.3%; viability, T/C [39]: 77.9%; viability, T/C [40]: 79.7%; viability, T/C [25]: 66.6%; viability, T/C [26]: 61.7%; viability, T/C [27]: 52.4%; viability, T/C [28]: 48.1% |
| COc1ccc([C@@H](O)c2cc(-c3ncnc4cc(N5CCOCC5)ccc34)c(F)cc2Cl)nn1 + Cc1ccccc1N=Nc1ccc(NC(=O)c2ccnn2C)c(C)c1 | 3450 | 2300 | 2420 | 1780 | 1690 | 97.8 | 91.4 | 81.3 | 67.8 | 83.7 | 84.9 | 78.3 | 61.4 | 91.1 | 80.7 | 72.8 | 60.2 | 76.8 | 80 | 76.1 | viability, T/C [5]: 51.4%; viability, T/C [6]: 33.8%; viability, T/C [11]: 46.4%; viability, T/C [12]: 33.9%; viability, T/C [17]: 47.2%; viability, T/C [18]: 32.6%; viability, T/C [22]: 58.2%; viability, T/C [23]: 41.9%; viability, T/C [24]: 32.9%; viability, T/C [25]: 75.4%; viability, T/C [26]: 74.2%; viability, T/C [27]: 64.5%; viability, T/C [28]: 57.3%; viability, T/C [29]: 42.3%; viability, T/C [30]: 34.2% |
| COc1cccc2c1C(=O)c1c(O)c3c(c(O)c1C2=O)CC(O)(C(=O)CO)CC3OC1CC(N)C(O)C(C)O1 (stereo not given) + Cc1cncc(-c2nc(NCCc3c[nH]c4ccccc34)c3ncn(C(C)C)c3n2)c1 | 393 | 437 | 404 | 400 | < 31.6 | 74.5 | 66.3 | 57.9 | 18.8 | 65.3 | 62.6 | 64.4 | 14 | 81.8 | 74.5 | 62.1 | 5.5 | 77.1 | 75 | 62.7 | viability, T/C [5]: 0.11%; viability, T/C [6]: 0.16%; viability, T/C [11]: 0.05%; viability, T/C [12]: 0.15%; viability, T/C [17]: 0.05%; viability, T/C [18]: 1.21%; viability, T/C [22]: 0.89%; viability, T/C [23]: 0.17%; viability, T/C [24]: 1.17%; viability, T/C [25]: 41.7%; viability, T/C [26]: 37.4%; viability, T/C [27]: 34.3%; viability, T/C [28]: 0.82%; viability, T/C [29]: 0.12%; viability, T/C [30]: 0.16% |
| Nc1ncn(C2CC(O)C(CO)O2)c(=O)n1 (stereo not given) + Cc1cncc(-c2nc(NCCc3c[nH]c4ccccc34)c3ncn(C(C)C)c3n2)c1 | > 1000 | > 1000 | > 1000 | > 1000 | < 3.16 | 76.2 | 73.1 | 77.9 | 67.7 | 84.5 | 74.1 | 71.3 | 79.6 | 84.8 | 77.2 | 86.1 | 78.7 | 104 | 99.8 | 103 | viability, T/C [31]: 81.2%; viability, T/C [32]: 76.9%; viability, T/C [33]: 92.2%; viability, T/C [34]: 89.5%; viability, T/C [35]: 92.1%; viability, T/C [36]: 89.8%; viability, T/C [37]: 97.2%; viability, T/C [38]: 87.5%; viability, T/C [22]: 84.2%; viability, T/C [39]: 43.5%; viability, T/C [40]: 42.6%; viability, T/C [25]: 45.2%; viability, T/C [26]: 47.7%; viability, T/C [27]: 51.2%; viability, T/C [28]: 55% |
